Earlier results, collected in patent publication US20070298096A1, “Analgesic/Antipyretic Compositions for Enhanced Absorption” (priority 2004, published 2007).
Where two headings read alike, the source gives them in different places.

SMILES: CC(=O)Nc1ccc(O)cc1 [APAP, acetaminophen]
- tmax (1 gram of APAP administered with 4 grams of calcium carbonate): 1.9 h
- tmax (APAP alone, 1 gram): 1.4 h
- time for the plasma level of APAP to reach its maximum, longer than APAP alone (co-administered with the calcium carbonate): ½
